Structures are written as SMILES. ≈ marks a conversion by molar mass, not a printed value. Like-named read-outs stand apart in the source and are kept apart here.

Common to all, as to assay type: cell-based
The test system of data set [1] is human epidermoid carcinoma A431. The data set can be described thus: XTT proliferation assay, A431. The conditions noted are these: A-431, A431 cells, average of two independent experiments. An excerpt:
(§1) For further characterization, substance 2 was investigated for its anti-proliferative effect using a panel of 12 human tumor cell lines. The cell lines used were the human glioma cell lines A172 (ATCC CRL-1620), U118 (ATCC HTB-15) and U373 (ATCC HTB-17), the rat glioma cell line C6 (ATCC CCL-107), the human lung carcinoma cell line A549, the human epidermoid carcinoma A431 (ATCC CRL-2592), the human prostate cancer cell lines DU145 (ATCC HTB-81) and PC3 (ATCC CRL-1435), the human colon adenocarcinoma cell line HT 29 (ATCC HTB-38), the human pancreas adenocarcinoma cell line ASPC1 (ATCC CRL-1682) and the human breast cancer cell lines T47D (ECACC 88062428) and MCAMB435 (NCI 914182). […]
(§2) The adherent, growing tumor cell lines KB/HeLa, SKOV-3, SF-268, NCI-H460, ASPC1, A172, A431, A549, DU145, C6, MDAMB435, HT29, PC3, T47D, U118MG and U373MG were cultured under standard conditions in the gassing incubator at 37° C., 5% CO2 and 95% relative humidity. […] Subsequently, the cell plates were incubated for a further 3 hours in a gassing incubator and the optical density (OD490 nm) was determined in the photometer. The percentage inhibition, relative to the control, is determined by means of the OD490 nm and plotted semi-logarithmically in the form of a concentration vs. activity curve. […]
For orientation: Formazan colour is commonly taken as a measure of viable cells.

For data set [2], the system named is human breast cancer cell line T47D. Nature of the data set: XTT proliferation assay, T47D. The conditions noted are these: T47D cells, average of two independent experiments.
Excerpt: as §1, §2

Data set [3] relates to ovarian adenocarcinoma cell line SKOV-3. Nature of the data set: XTT proliferation assay, SKOV-3. Conditions: Homo sapiens, SK-OV-3; SKOV-3 cells, 45 hours incubation.
Excerpt: (§3) The substance of Example 2 was investigated in a proliferation test on established tumor cell lines for its anti-proliferative activity. The test used determines the cellular dehydrogenase activity and enables the cell vitality and, indirectly, the cell count to be determined. The cell lines used are the human cervix carcinoma cell line KB/HeLa (ATCC CCL17), the ovarian adenocarcinoma cell line SKOV-3 (ATCC HTB77), the human glioblastoma cell line SF-268 (NCI 503138) and the lung carcinoma cell line NCI-H460 (NCI 503473). Moreover, for investigating the effect of the substance specifically on the cell cycle, an RKOp27 cell system was used (M. Schmidt et al. Oncogene 19(20):2423-9, 2000). […]
as §2

Data set [4] relates to human colon adenocarcinoma cell line HT 29. The data set can be described thus: XTT proliferation assay, HT29. Conditions: HT29 cells, average of two independent experiments.
Excerpt: as §1, §2

Data set [5] relates to human glioma cell line A172. Nature of the data set: XTT proliferation assay, A172. Conditions: A 172, A172 cells, average of two independent experiments.
Excerpt: as §1, §2

The subject of data set [6] is human lung carcinoma cell line A549. Nature of the data set: XTT proliferation assay, A549. The conditions noted are these: A549 cells, average of two independent experiments.
Excerpt: as §1, §2

Data set [7] has as its system human breast cancer cell line MDA MB435. Nature of the data set: XTT proliferation assay, MDA MB435. Conditions: MDA-MB-435, MDA MB435 cells, average of two independent experiments.
Excerpt: as §1, §2

In data set [8] the test system is human prostate cancer cell line PC3. Nature of the data set: XTT proliferation assay, PC3. The conditions noted are these: PC-3, PC3 cells, average of two independent experiments.
Excerpt: as §1, §2

A further data set relates to rat glioma cell line C6. Nature of the data set: XTT proliferation assay, C6. Conditions: C6 rat glioma cells, average of two independent experiments.
Excerpt: as §1, §2

In data set [9] the test system is human cervix carcinoma cell line KB/HeLa. Nature of the data set: XTT proliferation assay, KB/HeLa. Conditions: KB/HeLa cells, 45 hours incubation.
Excerpt: as §3, §2

In data set [10] the test system is human glioma cell line U118. The data set can be described thus: XTT proliferation assay, U118MG. Conditions: U-118-MG, U118MG cells, average of two independent experiments.
Excerpt: as §1, §2

Data set [11] relates to lung carcinoma cell line NCI-H460. The data set can be described thus: XTT proliferation assay, NCI-H460. The conditions noted are these: Homo sapiens; NCI-H460 cells, 45 hours incubation.
Excerpt: as §3, §2

The test system of data set [12] is human prostate cancer cell line DU145. The data set can be described thus: XTT proliferation assay, DU145. The conditions noted are these: DU-145, DU145 cells, average of two independent experiments.
Excerpt: as §1, §2

The subject of data set [13] is human pancreas adenocarcinoma cell line ASPC1. Nature of the data set: XTT proliferation assay, ASPC1. The conditions noted are these: ASPC1 cells, average of two independent experiments.
Excerpt: as §1, §2

The test system of data set [14] is human glioma cell line U373. The data set can be described thus: XTT proliferation assay, U373MG. Conditions: U373 MG, U373MG cells, average of two independent experiments.
Excerpt: as §1, §2

Data set [15] concerns RKOp27 human colon carcinoma cells. The data set can be described thus: Cell cycle analysis by means of the RKOp27 model (XTT). The conditions noted are these: for EC50: Homo sapiens, RKOp27, 45 h.
Excerpt: The substance of Example 2 was investigated in a proliferation test on established tumor cell lines for its anti-proliferative activity. The test used determines the cellular dehydrogenase activity and enables the cell vitality and, indirectly, the cell count to be determined. The cell lines used are the human cervix carcinoma cell line KB/HeLa (ATCC CCL17), the ovarian adenocarcinoma cell line SKOV-3 (ATCC HTB77), the human glioblastoma cell line SF-268 (NCI 503138) and the lung carcinoma cell line NCI-H460 (NCI 503473). Moreover, for investigating the effect of the substance specifically on the cell cycle, an RKOp27 cell system was used (M. Schmidt et al. Oncogene 19(20):2423-9, 2000). The RKO is a human colon carcinoma line, in which the cell cycle inhibitor p27^kip1 was expressed by means of the Ecdyson Expression System and can be brought to a cell cycle arrest in G2. A substance of nonspecific activity inhibits the proliferation independently of whether the RKO cell is or is not arrested in G1 or G2. On the other hand, cell cycle specific substances, such as tubulin inhibitors, are cytotoxic only when the cells are not arrested and passed through the cell cycle. In Table 2, the cytotoxic or growth-inhibiting activity of the compound described is shown with and without expression of p27^kip1.
as §2, with “curve. The EC50 is calculated from the concentration-activity curve by means of a regression analysis, using the Graphpad Prism program” for “curve.”

Data set [16] relates to human glioblastoma cell line SF-268. The data set can be described thus: XTT proliferation assay, SF-268. The conditions noted are these: SF-268 cells, 45 hours incubation.
Excerpt: as §3, §2

As to `COc1cc(OC)cc(N2CCN(C(=O)c3c4ccccc4cc4ccccc34)CC2)c1` [Example 2, Anthracene-9-yl-[4-(3,5-dimethoxy-phenyl)-piperazine-1-yl]-methanone], the EC50 was determined as 0.044 µg/mL (≈ 0.103 µM) in data set [1]; 0.022 µg/mL (≈ 0.0516 µM) in data set [2]; 0.047 µg/mL (≈ 0.11 µM) in data set [3]; 0.061 µg/mL (≈ 0.143 µM) in data set [4]; 0.046 µg/mL (≈ 0.108 µM) in data set [5]; 0.066 µg/mL (≈ 0.155 µM) in [6]. Moreover, the EC50 is 0.054 µg/mL (≈ 0.127 µM) in data set [7]; 0.049 µg/mL (≈ 0.115 µM) in data set [8]; 0.17 µg/mL (≈ 0.399 µM) in the data set on rat glioma cell line C6; 0.048 µg/mL (≈ 0.113 µM) in [9]; 0.059 µg/mL (≈ 0.138 µM) in [10]; 0.054 µg/mL (≈ 0.127 µM) in data set [11]. Moreover, the EC50 in data set [12] is 0.045 µg/mL (≈ 0.106 µM); in data set [13], 0.11 µg/mL (≈ 0.258 µM); in data set [14] it was 0.057 µg/mL (≈ 0.134 µM); in data set [15] (read-out: XTT Proliferation Assay, EC50 RKOP27), 0.058 µg/mL (≈ 0.136 µM); in data set [15] (read-out: XTT Proliferation Assay, EC50 RKOP27 ind.), > 3.16 µg/mL; in [16], 0.043 µg/mL (≈ 0.101 µM). Further, in data set [15] (RKOp27 cells, p27kip1 induced), the “cytotoxic activity in the induced state of p27kip1” value is recorded as “did not show any cytotoxic activity”.

(Values after patent publication US20040110756A1, “New anthracene derivatives and their use as pharmaceutical preparations” (priority 2002, published 2004).)
